Test results reported in paper PMC6337497 (International Journal of Molecular Sciences, 2018).
“Also recorded” adds a separate entry of the source. Blank lines part the entries; values can stand above or below the compound they belong to.

Tests used:
PC3 cells [1] = assay: Cell cycle analysis (propidium iodide), PC3; assay type: cell-based, Human; conditions: for effect on cell cycle distribution (in words): PC3, 48 h at GI50 dose
Experimental: (§1) Cells were harvested after 48 h drug treatments and DNA distribution analysis of cells stained with propidium iodide solution (propidium iodide 25 µg/mL, Na-Citrate 3.4 mM, NaCl 9.65 mM, NP-40 0.03%) was performed by an Epics cytofluorimeter (Beckman Coulter Srl, Milan, Italy).

DU145 cells [2] = assay: K3F21/docetaxel co-administration, MTT and CompuSyn, DU145; assay type: cell-based, Human; conditions: DU145, DTX 20nM co-administered with K3F21, 48 h
Experimental: (§2) The inhibition of cell proliferation was measured by colorimetric MTT assay and the concentration at which cellular growth is inhibited by 50% (GI50) was determined. Briefly, cells were seeded into 96-well plates at a density of 2000 cells/well. The following day, cells were treated with the indicated compounds and analyzed for cell viability after 48 h. 5 mg/mL thiazolyl blue tetrazolium bromide (Sigma-Aldrich, St. Louis, MO, USA) was added to each well at a final concentration of 0.5 mg/mL and the plates were incubated at 37 °C for 2 h. Medium containing unconverted MTT was removed and 100 µL MTT solvent (4 mM HCl, 0.1% NP-40 in isopropyl alcohol) was added to each well. The plate was gently rotated on an orbital shaker in the dark for 15 min, before the measurements of absorbance at 570 nm. The viability of untreated cells was arbitrarily set at 100%.
The ability of K3F21 and docetaxel to act synergistically with regard to growth inhibition was determined using CompuSyn software (ComboSyn, Inc., freely available at http://www.combosyn.com). Combination index (CI) and drug reduction index (DRI) were calculated for each concentration of drugs mixture, as indicated in the text. CI <1, =1 or >1 indicates synergism, additive effect, or antagonism, respectively. DRI >1 or <1 indicates favorable or not favorable dose-reduction.

DU145 cells [3] = assay: Cell cycle analysis (propidium iodide), DU145; assay type: cell-based, Human; conditions: for effect on cell cycle distribution (in words): DU145, 48 h at GI50 dose
Experimental: as §1

DU145 cells [4] = assay: MTT cell viability assay, DU145; assay type: cell-based, Human; conditions: for GI50: 48 h treatment, MTT
Experimental: (§3) Human prostate cancer PC3 cells (CRL 1435, ATCC, Manassas, VA, USA) were grown in Ham’s F12 nutrient medium, human prostate cancer DU145 cells (HTB-81, ATCC, Manassas, VA, USA) in RPMI 1640 medium and human colorectal carcinoma HCT116 cells (CCL-247, ATCC, Manassas, VA, USA) in IMDM medium. All media (Biowest, Nuaillé, France) were supplemented with 10% Foetal Bovine Serum (Gibco-Thermo Fisher Scientific, Waltham, MA, USA), L-glutamine, penicillin, and streptomycin (Euroclone, Milan, Italy), and grown at 37 °C in a humidified 5% CO2 atmosphere.
(§4) DMSO was used as control.
as §2

PC3 cells [5] = assay: MTT cell viability assay, PC3; assay type: cell-based, Human; conditions: for GI50: 48 h treatment, MTT
Experimental: as §3, §4, §2

DU145 cells [6] = assay: Western blot of total cellular lysates, DU145; assay type: cell-based, Human; conditions: DU145, 48 h at GI50 dose
Experimental: (§8) Actin was used as loading control. Whole-cell protein extracts were prepared by resuspending cells into 1X SDS sample buffer (25 mM Tris-HCl pH 6.8, 1.5 mM EDTA, 20% glycerol, 2% SDS, 5% β-mercaptoethanol, 0.0025% Bromophenol blue). Equivalent amounts of cellular extracts were resolved by SDS-PAGE, electrotransferred to PVDF membrane (GE Healthcare Italia, Milan, Italy) and immunoblotted with the following primary antibodies: anti-phospo-H2AX (sc-101696), anti-p53 (DO1) (sc-126), anti-actin ([MUT]) (sc-1616) and anti-PARP (sc-8007) antibody from Santa Cruz Biotecnology, Inc, Dallas, TX, USA.; phospho-specific AKT antibody S473 (#9018) and T308 (#9275), Akt antibody (#9272 and #2967), phospho-specific ERK1/2 antibody T202/Y204 (#4370), ERK1/2 antibody (#4669), phospho-specific p38 MAPK antibody T180/Y182 (#9211), and p38 antibody (#9212) were purchased from Cell Signaling Technologies, Danvers, MA, USA. Membranes were blotted and scanned with Bio-Rad ChemiDocTM Touch Imaging System (Bio-Rad, Hercules, CA, USA), using chemiluminescent detection reagents from Cyanagen, Bologna, Italy (Westar ηC and Supernova HRP substrates for Western blotting).

PC3 cells [7] = assay: RT-qPCR gene transcription, PC3; assay type: cell-based, Human; conditions: PC3, 48 h at GI50 dose
Experimental: (§5) Data are presented as relative transcript levels, normalized with RPL21 housekeeping gene, with DMSO levels arbitrarily set at 1.
(§6) RNA was extracted from cells using RNeasy kit (Qiagen, Venlo, The Netherlands) and reversed transcribed with a Moloney murine leukemia virus reverse transcriptase (Promega, Madison, WI, USA). Quantitative real-time PCRs were performed using SsoAdvanced Universal SYBR Green Supermix (Bio-Rad, Hercules, CA, USA) on a Bio-Rad CFX Connect™ real-time PCR detection system. Primer sequences are available upon request. The housekeeping gene Rpl21 was used as a loading control. The relative fold change enrichments of real-time PCR samples were calculated with the formula 2^−(ΔΔCt), where −(ΔΔCt) = −[(Ct target − Ct Rpl21)treated − (Ct target − Ct Rpl21)DMSO].

DU145 cells [8] = assay: RT-qPCR gene transcription, DU145; assay type: cell-based, Human; conditions: DU145, 48 h at GI50 dose
Experimental: as §5, §6

DU145 cells [9] = assay: Cell migration (wound) assay, DU145; assay type: cell-based, Human; conditions: DU145, GI50 dose, 16 h
Experimental: (§7) 4 × 10^5 prostate cancer cells were plated in a 12-well plate. Approximately 24 h later, when the cells were 100% confluent, the monolayer was scratched using a 200 µL pipette tip. […] Three biological replicates were performed. Three random pictures were taken for each treated well per experiment and the areas of the wounds measured using ImageJ software. The percentage of wound recovery was then calculated using the formula: (final area-initial area)/initial area × 100%.

PC3 cells [10] = assay: Western blot of total cellular lysates, PC3; assay type: cell-based, Human; conditions: PC3, 48 h at GI50 dose
Experimental: as §8

PC3 cells [11] = assay: Cell migration (wound) assay, PC3; assay type: cell-based, Human; conditions: PC3, GI50 dose, 40 h
Experimental: as §7

metastatic CRPC = test system: metastatic CRPC; design: method as in PMID 12644816, PMID 11448901; conditions: Phase II clinical trial; cited from earlier work
[12] = pH-metric titration, acid-base behavior (UV-vis, HypSpec); assay type: physicochemical; conditions: for pKa: aqueous solution diluted from a methanol mother solution, 25.0 °C, ionic strength 0.1 M NaNO3, read-out: pKa (keto-enol moiety)
Experimental: pH-metric titrations were performed in order to assess K3F acidity and predict the most abundant species in physiological condition. […] Overall protonation constants (βHL) were calculated from spectrophotometric data and optimized by means of HypSpec software (Supplementary Table S1). K3F23, K3F24 and K3F33 behaved as weak monoprotic acids, with a pKa value close to 8–8.50 associated to the keto-enol moiety. As for the other two ligands, namely K3F21 and K3F31, the acid-base equilibria were more complex in view of the polyprotic nature of the compounds, and three logβLH values were calculated. Species distribution curves (Supplementary Figure S2) provided reliable prediction of neutral and charged forms as function of pH, and consequently helped to envisage cell penetration and distribution in physiological conditions. […] As for K3F21 and K3F31, they behaved as less weak acids, in fact at pH 7 58% of K3F21 and 65% of K3F31 were found in the mono-dissociated negatively charged form (H2L^−), these percentages increased up to 74% and 86% respectively at pH 7.4. […] This outcome could be attributed to the stabilizing effect of the intramolecular hydrogen bond between the methoxyl and hydroxyl groups on the aromatic ring in the indissociated form of K3F21, which shifts the equilibrium in favor of the neutral species (H3L).
UV-vis spectrophotometric measurements were performed using Jasco V-570 spectrophotometer at 25.0 ± 0.1 °C in the 200–600 nm spectral range employing 1 cm quartz cells. Owing to the poor water solubility of the compounds, a methanol mother solution (5 × 10^−3 M) was diluted in water in order to give 50 µM solutions used for pH-metric titrations. The pH value was varied by adding small amounts of concentrated NaOH or HCl, 25 points in the pH range 3–10. A constant ionic strength of 0.1 M (NaNO3) was maintained in all the experiments. Each titration was performed at least three times. The overall protonation constants (logβLH) were evaluated from spectrophotometric data using the software HypSpec.

[13] = Antioxidant activity (DPPH assay); conditions: [DPPH] = 60 µM, methanol, 120 min; read-out: IC50, DPPH radical scavenging
Experimental: The antioxidant activity of the compounds was evaluated in terms of hydrogen donating or radical scavenging ability, using the stable DPPH radical (1,1-diphenyl-2-picrylhydrazyl radical). A variable amount (15, 30, 45, 75, 105, and 150 µL) of a methanol solution (1.2 mM) of each compound was placed in a cuvette, and 3 mL of a 60 µM methanol solution of DPPH was added. Absorbance measurements were initiated immediately. The decrease in absorbance at 517 nm was monitored every minute up to 5′, then every 5′ up to 30′ and every 30′ until reaction reaches completion and absorbance stabilizes attaining a plateau after 120′. Methanol was used to zero the spectrophotometer. The absorbance of the DPPH radical without K3F compound, i.e., the control, was measured daily, and concentration was calculated applying Equation (2) (2) [DPPH^·]=A−1.006/10970
The percentage of inhibition (%In) of the DPPH radical by each sample was calculated according to the formula (3) %In=A0−At/A0×100 where A0 represents the absorbance of the control (DPPH radical) at time 0, while At refers to the absorbance of the mixture DPPH/antioxidant at time t (120 min). Values of absorbance were corrected taking into account volume dilution and all determinations were performed in triplicate.

[14] = Kinetic stability in physiological conditions (UV-vis); assay type: physicochemical; conditions: after 24 h; PBS 0.01 M, NaCl 0.1M, pH = 7.4, 37 °C in darkness
Experimental: Figure 2 Stability and radical scavenging ability of K3F derivatives. (A) Residual % of K3F compounds vs. time (PBS 0.01 M, NaCl 0.1M, pH = 7.4, 37 °C in darkness). Residual % is calculated as At·100/A0, where At and A0 stand for absorbance at λmax at time t and time zero, respectively. (B) Percentage of inhibition of free DPPH radical ([DPPH^·] = 60 µM) in the presence of K3F compounds at increasing concentrations. Compounds concentration is expressed as molar ratio (compound/DPPH).
[…] 100 μM solutions of the ligands were prepared in 0.1 M Tris-HCl buffer (pH 7.4) with constant ionic strength (0.1 M NaNO3). Spectra were recorded every 30 min. All profiles were linearized by hyperbolic function (Equation (1)), which represents an empirical model that well describes drug decomposition or release. t/f% = at + b(1) where f% is the fraction of residual compound at time t (min) expressed as percentage referred to starting concentration at time zero.

IC50 (DU145 cells [4]; Homo sapiens, DU-145, DU145, MTT assay): 0.017 µM
IC50 (PC3 cells [5]; Homo sapiens, PC-3, PC3, MTT assay): 0.03 µM
Compound: CC(=O)O[C@@]12CO[C@@H]1C[C@H](O)[C@@]1(C)C(=O)[C@H](O)C3=C(C)[C@@H](OC(=O)[C@H](O)[C@@H](NC(=O)OC(C)(C)C)c4ccccc4)C[C@@](O)([C@@H](OC(=O)c4ccccc4)[C@H]21)C3(C)C [Docetaxel, reference compound]
effect on cell cycle distribution (in words) (PC3 cells [1]): high cytotoxic effect associated to a robust increase in SubG1 events
DTX drug reduction index (DRI) (DU145 cells [2]): 2.9
effect on cell cycle distribution (in words) (DU145 cells [3]): high cytotoxic effect associated to a robust increase in SubG1 events

GI50 (DU145 cells [4]; Homo sapiens, DU-145): 17.3 µM
GI50 (PC3 cells [5]; Homo sapiens, PC-3, 48 h): 21 µM
Compound: COc1cc(C=CC(=O)CC(=O)C=Cc2ccc(O)c(OC)c2)ccc1O [Curcumin, 1,7-bis [4-hydroxy-3-methoxyphenyl]-1,6-heptadiene-3,5-Dione, reference compound]
PC3 % CELLS G2/M (PC3 cells [1]; 48 h at GI50 concentration): 37%
effect on cell cycle distribution (in words) (PC3 cells [1]): significantly increases SubG1 events
ERK1/2 phosphorylation (DU145 cells [6]): increased
phospho-p38 expression (DU145 cells [6]): no changes were observed
γH2AX expression (marker of DNA damage) (DU145 cells [6]): increased γH2AX in PC3 only
Noxa transcription (PC3 cells [7]): induced
transcription of CDK inhibitors p21 and p27 (PC3 cells [7]): increased
Noxa transcription (DU145 cells [8]): induced
DU145 % CELLS SubG1 (DU145 cells [3]; 48 h at GI50 concentration): 5%
effect on cell cycle distribution (in words) (DU145 cells [3]): mainly acts as a cytotoxic drug
cell migration (wound recovery) (DU145 cells [9]): inhibitory effects on the migratory capacity
ERK1/2 phosphorylation (PC3 cells [10]): increased
phosphorylation of AKT in Ser473 and Thr308 (PC3 cells [10]): inhibited
γH2AX expression (marker of DNA damage) (PC3 cells [10]): increased
cell migration (wound recovery) (PC3 cells [11]): inhibitory effects on the migratory capacity

Compound: O=C1CCC(N2C(=O)c3ccccc3C2=O)C(=O)N1 (centres unmarked) [thalidomide]
patients with a decline in PSA of ≥40% (metastatic CRPC): 30–40%

GI50 (DU145 cells [4]; Homo sapiens, DU-145): 12.5 µM
GI50 (PC3 cells [5]; Homo sapiens, PC-3, 48 h): 12.4 µM
pKa [12]: 8 to 8.5
prevailing species ([12]; pH 7): neutral one (HL)
Compound: COc1cccc(/C=C/C(=O)C(CCCN2C(=O)c3ccccc3C2=O)C(=O)/C=C/c2cccc(OC)c2)c1 [K3F23]
effect on cell cycle distribution (in words) (PC3 cells [1]): doubled the percentage of G2/M cells
effect on cell cycle distribution (in words) (DU145 cells [3]): both arrested the G2/M progression and induced cell death

GI50 (DU145 cells [4]; Homo sapiens, DU-145): 13.2 µM
GI50 (PC3 cells [5]; Homo sapiens, PC-3, 48 h): 16.7 µM
pKa [12]: 8 to 8.5
prevailing species ([12]; pH 7): neutral one (HL)
Compound: COc1cc(/C=C/C(=O)C(CCCN2C(=O)c3ccccc3C2=O)C(=O)/C=C/c2ccc(OC(C)=O)c(OC)c2)ccc1OC(C)=O [K3F24]
effect on cell cycle distribution (in words) (PC3 cells [1]): doubled the percentage of G2/M cells
effect on cell cycle distribution (in words) (DU145 cells [3]): ability to arrest cell cycle progression

IC50 [13]: 120 µM
mono-dissociated negatively charged form (H2L−) ([12]; pH 7): 65%
mono-dissociated negatively charged form (H2L−) ([12]; pH 7.4): 86%
Compound: O=C(/C=C/c1ccc(O)cc1)C(CCCN1C(=O)c2ccccc2C1=O)C(=O)/C=C/c1ccc(O)cc1 [K3F31]

GI50 (DU145 cells [4]): 23.3 µM
GI50 (PC3 cells [5]): 21.8 µM
residual percentage [14]: ~60%
prevailing species ([12]; pH 7): neutral one (HL)
Compound: 2-((4Z,6E)-4-cinnamoyl-5-hydroxy-7-phenylhepta-4,6-dien-1-yl)isoindoline-1,3-dione [K3F33]
effect on cell cycle distribution (in words) (PC3 cells [1]): doubled the percentage of G2/M cells; also recorded: significantly increases SubG1 events
effect on cell cycle distribution (in words) (DU145 cells [3]): ability to arrest cell cycle progression
